In patent US12077503B2, “Substituted cyclic amides and their use as herbicides” (FMC CORPORATION, priority 2015, dated 2024):

Assays:
Format in all cases: in vivo
[1] = tested on: ivy-leaved morning glory (Ipomoea hederacea); test: Test G Pre-Emergence Protocol; settings: Ipomoea, pre-emergence, 312 h, evaluated after 13 days; for pest or weed control at 15.625 g/ha: 15.625 g ai/ha, read-out: Morning-glory, Ivy-leaved damage rating (100=total damage to plant; 0=no damage to plant); for pest or weed control at 62.5 g/ha: 62.5 g ai/ha, 100=total damage to plant, 0=no damage to plant, read-out: plant damage rating, Morningglory, Ivy-leaved; for pest or weed control at 250 g/ha: 250 g ai/ha, read-out: Morningglory, Ivy-leaved damage rating (100=total damage to plant; 0=no damage to plant)
Procedure, shortened: (§1)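 Seeds were sown in standard soil and kept one day in a glasshouse (24/16° C day/night, 14 h light, 65% humidity), then sprayed with compound in acetone/water (50:50) containing 0.5% Tween 20 at 15.625, 62.5 or 250 g/ha. Damage was scored after 13 days (0 = none, 100 = total).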

corn (Zea mays) [2] = test: Test G Pre-Emergence Protocol; settings: Zea mays, pre-emergence, 312 h, evaluated after 13 days; for plant injury at 15.625 g/ha: 15.625 g ai/ha; for plant injury at 15.625 g/ha / plant injury at 250 g/ha: read-out: Corn damage rating (100=total damage to plant; 0=no damage to plant); for plant injury at 62.5 g/ha: 62.5 g ai/ha, 100=total damage to plant, 0=no damage to plant, read-out: plant damage rating, Corn; for plant injury at 250 g/ha: 250 g ai/ha
Procedure, shortened: as §1

[3] = tested on: giant foxtail (Setaria faberi); test: Test G Pre-Emergence Protocol; settings: Setaria faberi, pre-emergence, 312 h, evaluated after 13 days; for pest or weed control at 15.625 g/ha: 15.625 g ai/ha; for pest or weed control at 15.625 g/ha / pest or weed control at 250 g/ha: read-out: Foxtail, Giant damage rating (100=total damage to plant; 0=no damage to plant); for pest or weed control at 62.5 g/ha: 62.5 g ai/ha, 100=total damage to plant, 0=no damage to plant, read-out: plant damage rating, Foxtail, Giant; for pest or weed control at 250 g/ha: 250 g ai/ha
Procedure, shortened: as §1

[4] = tested on: redroot pigweed (Amaranthus retroflexus); test: Test G Pre-Emergence Protocol; settings: Amaranthus retroflexus, pre-emergence, 312 h, evaluated after 13 days; for pest or weed control at 15.625 g/ha: 15.625 g ai/ha; for pest or weed control at 15.625 g/ha / pest or weed control at 250 g/ha: read-out: Pigweed, Redroot damage rating (100=total damage to plant; 0=no damage to plant); for pest or weed control at 62.5 g/ha: 62.5 g ai/ha, 100=total damage to plant, 0=no damage to plant, read-out: plant damage rating, Pigweed, Redroot; for pest or weed control at 250 g/ha: 250 g ai/ha
Procedure, shortened: as §1

[5] = tested on: barnyardgrass (Echinochloa crus-galli); test: Test G Pre-Emergence Protocol; settings: Echinochloa crus-galli, pre-emergence, 312 h, evaluated after 13 days; for pest or weed control at 15.625 g/ha: 15.625 g ai/ha, read-out: Barnyard grass damage rating (100=total damage to plant; 0=no damage to plant); for pest or weed control at 62.5 g/ha: 62.5 g ai/ha, 100=total damage to plant, 0=no damage to plant, read-out: plant damage rating, Barnyardgrass; for pest or weed control at 250 g/ha: 250 g ai/ha, read-out: Barnyardgrass damage rating (100=total damage to plant; 0=no damage to plant)
Procedure, shortened: as §1

[6] = tested on: velvetleaf (Abutilon theophrasti); test: Test G Pre-Emergence Protocol; settings: Abutilon theophrasti, pre-emergence, 312 h, evaluated after 13 days; for pest or weed control at 15.625 g/ha: 15.625 g ai/ha; for pest or weed control at 15.625 g/ha / pest or weed control at 250 g/ha: read-out: Velvetleaf damage rating (100=total damage to plant; 0=no damage to plant); for pest or weed control at 62.5 g/ha: 62.5 g ai/ha, 100=total damage to plant, 0=no damage to plant, read-out: plant damage rating, Velvetleaf; for pest or weed control at 250 g/ha: 250 g ai/ha
Procedure, shortened: as §1

[7] = tested on: ivy-leaved morning glory (Ipomoea hederacea); test: Test G Post-Emergence Protocol; settings: Ipomoea, post-emergence, 312 h; for pest or weed control at 15.625 g/ha: 15.625 g ai/ha, evaluated after 13 days (100=total damage to plant; 0=no damage to plant), read-out: Morningglory, Ivy-leaved damage rating; for pest or weed control at 62.5 g/ha: 62.5 g ai/ha, read-out: Morningglory, Ivy-leaved damage rating (100=total damage to plant; 0=no damage to plant); for pest or weed control at 62.5 g/ha / pest or weed control at 250 g/ha: evaluated after 13 days; for pest or weed control at 250 g/ha: 250 g ai/ha, read-out: damage to plant, Morningglory, Ivy-leaved (100=total damage to plant; 0=no damage to plant)
Procedure, shortened: (§2)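 Post-emergence herbicidal damage, scored visually 0–100 at 13 days. Application at 15.625, 62.5 or 250 g/ha onto 8-day-old plants grown under glasshouse control.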

corn (Zea mays) [8] = test: Test G Post-Emergence Protocol; settings: Zea mays, post-emergence, 312 h; for plant injury at 15.625 g/ha: 15.625 g ai/ha, evaluated after 13 days (100=total damage to plant; 0=no damage to plant), read-out: Corn damage rating; for plant injury at 62.5 g/ha: 62.5 g ai/ha, read-out: Corn damage rating (100=total damage to plant; 0=no damage to plant); for plant injury at 62.5 g/ha / plant injury at 250 g/ha: evaluated after 13 days; for plant injury at 250 g/ha: 250 g ai/ha, read-out: damage to plant, Corn (100=total damage to plant; 0=no damage to plant)
Procedure, shortened: as §2

[9] = tested on: giant foxtail (Setaria faberi); test: Test G Post-Emergence Protocol; settings: Setaria faberi, post-emergence, 312 h; for pest or weed control at 15.625 g/ha: 15.625 g ai/ha, evaluated after 13 days (100=total damage to plant; 0=no damage to plant), read-out: Foxtail, Giant damage rating; for pest or weed control at 62.5 g/ha: 62.5 g ai/ha, read-out: Foxtail, Giant damage rating (100=total damage to plant; 0=no damage to plant); for pest or weed control at 62.5 g/ha / pest or weed control at 250 g/ha: evaluated after 13 days; for pest or weed control at 250 g/ha: 250 g ai/ha, read-out: damage to plant, Foxtail, Giant (100=total damage to plant; 0=no damage to plant)
Procedure, shortened: as §2

[10] = tested on: redroot pigweed (Amaranthus retroflexus); test: Test G Post-Emergence Protocol; settings: Amaranthus retroflexus, post-emergence, 312 h; for pest or weed control at 15.625 g/ha: 15.625 g ai/ha, evaluated after 13 days (100=total damage to plant; 0=no damage to plant), read-out: Pigweed, Redroot damage rating; for pest or weed control at 62.5 g/ha: 62.5 g ai/ha, read-out: Pigweed, Redroot damage rating (100=total damage to plant; 0=no damage to plant); for pest or weed control at 62.5 g/ha / pest or weed control at 250 g/ha: evaluated after 13 days; for pest or weed control at 250 g/ha: 250 g ai/ha, read-out: damage to plant, Pigweed, Redroot (100=total damage to plant; 0=no damage to plant)
Procedure, shortened: as §2

[11] = tested on: barnyardgrass (Echinochloa crus-galli); test: Test G Post-Emergence Protocol; settings: Echinochloa crus-galli, post-emergence, 312 h; for pest or weed control at 15.625 g/ha: 15.625 g ai/ha, evaluated after 13 days (100=total damage to plant; 0=no damage to plant), read-out: Barnyardgrass damage rating; for pest or weed control at 62.5 g/ha: 62.5 g ai/ha, read-out: Barnyardgrass damage rating (100=total damage to plant; 0=no damage to plant); for pest or weed control at 62.5 g/ha / pest or weed control at 250 g/ha: evaluated after 13 days; for pest or weed control at 250 g/ha: 250 g ai/ha, read-out: damage to plant, Barnyardgrass (100=total damage to plant; 0=no damage to plant)
Procedure, shortened: as §2

[12] = tested on: velvetleaf (Abutilon theophrasti); test: Test G Post-Emergence Protocol; settings: Abutilon theophrasti, post-emergence, 312 h; for pest or weed control at 15.625 g/ha: 15.625 g ai/ha, evaluated after 13 days (100=total damage to plant; 0=no damage to plant), read-out: Velvetleaf damage rating; for pest or weed control at 62.5 g/ha: 62.5 g ai/ha, read-out: Velvetleaf damage rating (100=total damage to plant; 0=no damage to plant); for pest or weed control at 62.5 g/ha / pest or weed control at 250 g/ha: evaluated after 13 days; for pest or weed control at 250 g/ha: 250 g ai/ha, read-out: damage to plant, Velvetleaf (100=total damage to plant; 0=no damage to plant)
Procedure, shortened: as §2

SMILES	pest or weed control at 15.625 g/ha [1]	pest or weed control at 62.5 g/ha [1]	pest or weed control at 250 g/ha [1]	plant injury at 15.625 g/ha (corn (Zea mays) [2])	plant injury at 62.5 g/ha (corn (Zea mays) [2])	plant injury at 250 g/ha (corn (Zea mays) [2])	pest or weed control at 15.625 g/ha [3]	pest or weed control at 62.5 g/ha [3]	pest or weed control at 250 g/ha [3]	pest or weed control at 15.625 g/ha [4]	pest or weed control at 62.5 g/ha [4]	pest or weed control at 250 g/ha [4]	pest or weed control at 15.625 g/ha [5]	pest or weed control at 62.5 g/ha [5]	pest or weed control at 250 g/ha [5]	pest or weed control at 15.625 g/ha [6]	pest or weed control at 62.5 g/ha [6]	pest or weed control at 250 g/ha [6]	pest or weed control at 15.625 g/ha [7]	pest or weed control at 62.5 g/ha [7]	other results
COC(=O)c1nccc(NC(=O)[C@@H]2C(=O)N(C)C[C@H]2c2ccc(C(F)(F)F)cc2)n1 (racemic) [Compound 1537]	0%	0%	0%	0%	0%	0%	0%	0%	0%	0%	0%	0%	0%	0%	0%	0%	0%	0%	0%	0%	pest or weed control at 250 g/ha [7]: 0%; plant injury at 15.625 g/ha (corn (Zea mays) [8]): 0%; plant injury at 62.5 g/ha (corn (Zea mays) [8]): 0%; plant injury at 250 g/ha (corn (Zea mays) [8]): 0%; pest or weed control at 15.625 g/ha [9]: 0%; pest or weed control at 62.5 g/ha [9]: 0%; pest or weed control at 250 g/ha [9]: 0%; pest or weed control at 15.625 g/ha [10]: 0%; pest or weed control at 62.5 g/ha [10]: 0%; pest or weed control at 250 g/ha [10]: 0%; pest or weed control at 15.625 g/ha [11]: 0%; pest or weed control at 62.5 g/ha [11]: 0%; pest or weed control at 250 g/ha [11]: 0%; pest or weed control at 15.625 g/ha [12]: 0%; pest or weed control at 62.5 g/ha [12]: 0%; pest or weed control at 250 g/ha [12]: 0%
CN1C[C@@H](c2ccc(C(F)(F)F)cc2)[C@H](C(=O)Nc2ncnn2C)C1=O (racemic) [Compound 1643]	0%	0%	0%	0%	0%	0%	0%	0%	0%	0%	0%	0%	0%	0%	0%	0%	0%	0%	0%	0%	pest or weed control at 250 g/ha [7]: 0%; plant injury at 15.625 g/ha (corn (Zea mays) [8]): 0%; plant injury at 62.5 g/ha (corn (Zea mays) [8]): 0%; plant injury at 250 g/ha (corn (Zea mays) [8]): 0%; pest or weed control at 15.625 g/ha [9]: 0%; pest or weed control at 62.5 g/ha [9]: 0%; pest or weed control at 250 g/ha [9]: 0%; pest or weed control at 15.625 g/ha [10]: 0%; pest or weed control at 62.5 g/ha [10]: 0%; pest or weed control at 250 g/ha [10]: 0%; pest or weed control at 15.625 g/ha [11]: 0%; pest or weed control at 62.5 g/ha [11]: 0%; pest or weed control at 250 g/ha [11]: 0%; pest or weed control at 15.625 g/ha [12]: 0%; pest or weed control at 62.5 g/ha [12]: 0%; pest or weed control at 250 g/ha [12]: 0%
COc1c(Cl)cccc1NC(=O)[C@H]1C(=O)N(C)C[C@@H]1c1ccc(C(F)(F)F)cc1 (racemic) [Compound 1447]	0%	0%	0%	0%	0%	20%	50%	50%	60%	0%	0%	0%	0%	0%	10%	0%	0%	0%	0%	0%	pest or weed control at 250 g/ha [7]: 0%; plant injury at 15.625 g/ha (corn (Zea mays) [8]): 0%; plant injury at 62.5 g/ha (corn (Zea mays) [8]): 10%; plant injury at 250 g/ha (corn (Zea mays) [8]): 10%; pest or weed control at 15.625 g/ha [9]: 10%; pest or weed control at 62.5 g/ha [9]: 20%; pest or weed control at 250 g/ha [9]: 50%; pest or weed control at 15.625 g/ha [10]: 0%; pest or weed control at 62.5 g/ha [10]: 0%; pest or weed control at 250 g/ha [10]: 0%; pest or weed control at 15.625 g/ha [11]: 0%; pest or weed control at 62.5 g/ha [11]: 0%; pest or weed control at 250 g/ha [11]: 0%; pest or weed control at 15.625 g/ha [12]: 0%; pest or weed control at 62.5 g/ha [12]: 0%; pest or weed control at 250 g/ha [12]: 0%
